Data taken from patent US20130011392A1, “METHOD FOR ASSESSING THE ABILITY OF A PATIENT TO RESPOND TO OR BE SAFELY TREATED BY A NUCLEOSIDE ANALOG BASED-CHEMOTHERAPY” (Assistance Publique Hopitaux De Marseille, priority 2009, published 2013).
Like-named read-outs stand apart in the source and are kept apart here.

Tests used:
[1] = tested on: pancreatic cancers and other digestive localizations; assay: Treatment efficacy in digestive cancer patients by CT imaging / CA19-9 at 3 months; format: in vivo, human; settings: gemcitabine alone or combined
Procedure: A total of 40 adult patients (21 men/19 women; 61±11 years old) with mostly pancreatic cancers (n=36 patients) and other digestive localizations (n=4 patients) were included in this retrospective study. All patients had been treated with gemcitabine alone (n=23 patients), associated with oxaliplatin (n=7 patients), erlotinib (n=2 patients), capecitabine (n=1 patient) or other drugs, including molecules used in target therapies (n=7 patients). Mean gemcitabine dose was 980 mg/m^2 (minimum: 500 mg/m^2, maximum: 1250 mg/m^2). CDA activity was measured spectrophotometrically from serum samples. Search for three genetic mutations (79A>C, 435T>C and 208G>A) was additionally performed. The cut-off associated with CDA extensiveness (extensive CDA activity) was set at 6 U/mg (e.g., >25% of the mean value of the population). Treatment efficacy was evaluated 3 month after beginning of the chemotherapy by CT imaging, with or without additional monitoring of the CA19-9 tumor marker.

[2] = Animal pharmacokinetics of gemcitabine; format: in vivo, swiss mice; settings: for clearance: male, Swiss, mouse, plasma, intraperitoneal; for Gemcitabine exposure AUC0-60: gemcitabine 100 mg/kg intraperitoneally; for Increase in gemcitabine exposure in animals with inhibited CDA: inhibited CDA (THU) vs normal CDA
Procedure: (§1) Parent-drug and difluorodeoxyuridine (dFdU) metabolite concentrations in plasma were assayed by UV-HPLC, as described in the literature (10). Elimination rate of gemcitabine was evaluated through a compartmental analysis and a stochastic model, using a home-built algorithm (11). Mean metabolization ratio for gemcitabine was calculated as follows: dFdU (μg/ml)/gemcitabine (μg/ml)×100. Carcass weights were monitored. Drug-induced leucopenia was the marker for gemcitabine-related toxicity. Leucocytes count was performed on day-0, then day-2, day-5 and day-8 post injection using Flow Cytometry analysis.

[3] = tested on: patients; settings: cited from earlier work
[4] = tested on: paediatric cancer patients; assay: Treatment-related toxicities in children; format: in vivo, human
Excerpt: Subset 3: 20 patients (12 men/8 women; mean and SD age, 12±7 years) from the Pediatric Oncology Unit of La Timone University Hospital that had been previously treated with gemcitabine-based protocols had their CDA status phenotyped as well (Table 2). Most of these young patients were heavily pre-treated, and gemcitabine was mostly given as part of a Gemox protocol (n=14 patients), or associated with paclitaxel (n=3 patients) or with various other anticancer drugs (e.g.
carboplatine, liposomal doxorubicin) or dexamethasone. In children, mean gemcitabine dose was 1028±190 mg/m^2 (minimum, 600 mg/m^2 —maximum, 1400 mg/m^2). Tumour types were extremely heterogeneous and included osteosarcoma, medulloblastoma, Ewing's sarcoma, and Hodgkin's syndrome.
Toxicities were graded following the standard National Cancer Institute-Common Toxicity Criteria guidelines. Toxicities of grade ≧3 were regarded as “severe”. A toxic event was considered “early” when occurring […] the 1st or the 2nd day of the gemcitabine course, and was considered “late” when occurring after those days.

[5] = tested on: adult cancer patients; assay: Treatment-related toxicities in adult cancer patients (NCI-CTC); format: in vivo, human
Excerpt: A total of 150 cancer patients (130 adults—Table 1 and 20 children—Table 2) hospitalized at La Timone University Hospital of Marseille, France, from January 2007 to December 2008, were enrolled in this retrospective, observational study. Written informed consent and local ethic committee approval were obtained prior to performing CDA testing. Patients were divided into 3 subsets: […] These patients were mostly treated for pancreatic (n=40 patients) or gynaecological (n=7 patients) cancers. Other tumour types included liver, lung, vesical, or other localizations. In patients with digestive cancers, gemcitabine was administered as a fixed-dose rate infusion, whereas other patients received a standard rapid infusion. […] Remaining patients were given various drug combinations including capecitabine, fluorouracil (5-FU), herceptin, navelbine, sorafenib, axatinib, and erlotinib. Gemcitabine was given either as a rapid infusion or at fixed-dose rate infusion, depending on tumor location, as described previously. Twenty patients were treated for vesical-urothelial cancers. Other tumour types were pancreatic (n=12 patients), breast (n=12 patients), gynaecological (n=12 patients), and other, including lung, head and neck, liver, and other localisations. Toxicities were graded following the standard National Cancer Institute-Common Toxicity Criteria guidelines. Toxicities of grade ≧3 were regarded as “severe”.

[6] = tested on: leucocytes; assay: Animal haematological toxicity monitoring (leucocytes count); format: in vivo, swiss mice; settings: for Mean leucocytes count: day 5 after gemcitabine 100 mg/kg
Procedure: as §1

[7] = extensive subset (CDA>6 U/mg, n=8)

Compound: Nc1ccn([C@@H]2O[C@H](CO)[C@@H](O)C2(F)F)c(=O)n1 [gemcitabine, 2′-deoxy-2′,2′-difluorocytidine]
- Non-responders with progressive disease [1, 7]: 75%
- Patients with controlled disease [1, 7]: 25%
- Patients with controlled disease ([1]; non-extensive subset (CDA<6 U/mg, n=32)): 84.5%
- clearance [2]: 3.25 mL/min/kg
- clearance ([2]; 100 mg/kg, mice, normal CDA): 12.6 mL/min/kg
- Decrease of gemcitabine clearance ([2]; mice with altered CDA function (THU) vs normal): 74%
- Gemcitabine exposure AUC0-60 ([2]; mice, inhibited CDA (THU pre-treatment)): 142 µg/mL/min
- Gemcitabine exposure AUC0-60 ([2]; mice, normal CDA): 54 µg/mL/min
- Increase in gemcitabine exposure in animals with inhibited CDA ([2]; mice): ~3 fold
- Increase in gemcitabine exposure in animals with inhibited CDA ([2]; mice, listed as Gemcitabine): 2.6 fold
- Severe toxicities reported ([3]; gemcitabine given as a combination (polychemotherapy)): 15-30%
- Severe toxicities reported ([3]; gemcitabine monochemotherapy): 5-10%
- Late/cumulative grade-3 anemia ([4]; Subset 3, 20 children): 20%
- Late/cumulative grade-3 neutropenia ([4]; Subset 3, 20 children): 20%
- Late/cumulative grade-3 thrombopenia ([4]; Subset 3, 20 children): 10%
- Early severe toxicities ([4]; Subset 3, 20 children, gemcitabine-based protocols): No early severe toxicities were observed
- Tolerance ([4]; children): well tolerated
- Patients with severe side-effects ([5]; 66 extra-patients, gemcitabine in combination with another anticancer drug): 14%
- Patients with early severe toxicities ([5]; 130 adult patients, gemcitabine-containing protocol, after first or second administration): 12%
- Patients with early severe toxicities ([5]; Subset 1, gemcitabine alone, n=64): 11%
- Anemia grade 3/4, Early ([5]; Subset 1, monotherapy, n=64): 1 (1.6%) n (%)
- Anemia grade 3/4, Late ([5]; Subset 1, monotherapy, n=64): 1 (1.6%) n (%)
- Asthenia grade 3/4, Early ([5]; Subset 1, monotherapy, n=64): 1 (1.6%) n (%)
- Asthenia grade 3/4, Late ([5]; Subset 1, monotherapy, n=64): 1 (1.6%) n (%)
- Diarrhea grade 3/4, Early ([5]; Subset 1, monotherapy, n=64): 0 (0%) n (%)
- Diarrhea grade 3/4, Late ([5]; Subset 1, monotherapy, n=64): 1 (1.6%) n (%)
- Leucopenia grade 3/4, Early ([5]; Subset 1, monotherapy, n=64): 7 (11%) n (%)
- Leucopenia grade 3/4, Late ([5]; Subset 1, monotherapy, n=64): 10 (16%) n (%)
- Neutropenia grade 3/4, Early ([5]; Subset 1, monotherapy, n=64): 6 (9.6%) n (%)
- Neutropenia grade 3/4, Late ([5]; Subset 1, monotherapy, n=64): 8 (12.8%) n (%)
- Sepsis grade 3/4, Early ([5]; Subset 1, monotherapy, n=64): 3 (4.8%) n (%)
- Sepsis grade 3/4, Late ([5]; Subset 1, monotherapy, n=64): 0 (0%) n (%)
- Thrombopenia grade 3/4, Early ([5]; Subset 1, monotherapy, n=64): 2 (3.2%) n (%)
- Thrombopenia grade 3/4, Late ([5]; Subset 1, monotherapy, n=64): 2 (3.2%) n (%)
- Outcome by day 8 ([6]; CDA-deficient mice (THU)): all animals were dead
- Decrease of leucocytes count ([6]; day 5, CDA-deficient mice (THU)): 65%
- Decrease of leucocytes count as compared with untreated animals ([6]; day 5, mice with normal CDA activity): 23%
- Mean leucocytes count ([6]; CDA-deficient mice (THU)): 1.5 G/L
- Mean leucocytes count ([6]; mice with normal CDA activity): 3.2 G/L
- Outcome by day 8 ([6]; mice with normal CDA activity): all animals spontaneously recovered from their toxicities
